# Measured values as given in PubChem BioAssay (NCI).
#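 Each compound was tested at five concentrations against cells in 96-well plates for 48 hours. GI50: concentration for 50% inhibition of growth. TGI marks complete inhibition of growth.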
# Experiments:
# Assay in all cases: NCI anticancer screen, dose series, 48 h
# SNB-19 CNS = system: SNB-19 CNS
# UACC-62 melanoma = system: UACC-62 melanoma
# HOP-62 NSCLC = system: HOP-62 NSCLC
# SW-620 colon = system: SW-620 colon
# SNB-75 CNS = system: SNB-75 CNS
# NCI-H23 lung = system: NCI-H23 lung
# HCT-15 colon = system: HCT-15 colon
# OVCAR-4 ovarian = system: OVCAR-4 ovarian
# RPMI-8226 leukemia = system: RPMI-8226 leukemia
# SN12C renal = system: SN12C renal
# RXF 393 renal = system: RXF 393 renal
# SK-MEL-28 melanoma = system: SK-MEL-28 melanoma
# DU-145 prostate = system: DU-145 prostate
# T-47D breast = system: T-47D breast
# MDA-MB-435 = system: MDA-MB-435
# SF-295 CNS = system: SF-295 CNS
# SK-MEL-2 melanoma = system: SK-MEL-2 melanoma
# MALME-3M melanoma = system: MALME-3M melanoma
# HS 578T breast = system: HS 578T breast
# KM12 colon = system: KM12 colon
# HL-60(TB) leukemia = system: HL-60(TB) leukemia
# IGROV1 ovarian = system: IGROV1 ovarian
# SK-MEL-5 melanoma = system: SK-MEL-5 melanoma
# CAKI-1 renal = system: CAKI-1 renal
# MOLT-4 leukemia = system: MOLT-4 leukemia
# MDA-MB-468 breast = system: MDA-MB-468 breast
# HOP-92 NSCLC = system: HOP-92 NSCLC
# K-562 leukemia = system: K-562 leukemia
# EKVX NSCLC = system: EKVX NSCLC
# NCI-H460 lung = system: NCI-H460 lung
# UO-31 renal = system: UO-31 renal
# SR leukemia = system: SR leukemia
# OVCAR-5 ovarian = system: OVCAR-5 ovarian
# NCI-H226 lung = system: NCI-H226 lung
# SF-268 CNS = system: SF-268 CNS
# PC-3 prostate = system: PC-3 prostate
# CCRF-CEM leukemia = system: CCRF-CEM leukemia
# OVCAR-8 ovarian = system: OVCAR-8 ovarian
# MCF7 breast = system: MCF7 breast
# UACC-257 melanoma = system: UACC-257 melanoma
# NCI/ADR-RES ovarian = system: NCI/ADR-RES ovarian
# HCT-116 colon = system: HCT-116 colon
# BT-549 breast = system: BT-549 breast
# TK-10 renal = system: TK-10 renal
# COLO 205 colon = system: COLO 205 colon
# SK-OV-3 ovarian = system: SK-OV-3 ovarian
# U251 CNS = system: U251 CNS
# 786-0 renal = system: 786-0 renal
# A549 NSCLC = system: A549 NSCLC
# ACHN renal = system: ACHN renal
# LOX IMVI melanoma = system: LOX IMVI melanoma
# HT29 colon = system: HT29 colon
# M14 melanoma = system: M14 melanoma
# NCI-H522 lung = system: NCI-H522 lung
# MDA-MB-231 breast = system: MDA-MB-231 breast
# A498 renal = system: A498 renal
# HCC-2998 colon = system: HCC-2998 colon
# SF-539 CNS = system: SF-539 CNS
# OVCAR-3 ovarian = system: OVCAR-3 ovarian
structure (smiles),measurement,setting,value
COc1ccc2ncc(C#Cc3cncc(C(=O)Nc4ccc(CN5CCN(C)CC5)c(C(F)(F)F)c4)c3)n2n1,GI50,SNB-19 CNS,9.94 µM
same,TGI,SNB-19 CNS,21.5 µM
same,GI50,UACC-62 melanoma,8.37 µM
same,TGI,UACC-62 melanoma,18.2 µM
same,GI50,HOP-62 NSCLC,1.16 µM
same,TGI,HOP-62 NSCLC,16.6 µM
same,GI50,SW-620 colon,0.27 µM
same,TGI,SW-620 colon,7.6 µM
same,GI50,SNB-75 CNS,5.91 µM
same,TGI,SNB-75 CNS,15.9 µM
same,GI50,NCI-H23 lung,0.629 µM
same,TGI,NCI-H23 lung,10.3 µM
same,GI50,HCT-15 colon,0.496 µM
same,TGI,HCT-15 colon,9.8 µM
same,GI50,OVCAR-4 ovarian,3.89 µM
same,TGI,OVCAR-4 ovarian,18.3 µM
same,GI50,RPMI-8226 leukemia,1.39 µM
same,TGI,RPMI-8226 leukemia,> 72 µM
same,GI50,SN12C renal,1.37 µM
same,TGI,SN12C renal,8.03 µM
same,GI50,RXF 393 renal,1.31 µM
same,TGI,RXF 393 renal,8.63 µM
same,GI50,SK-MEL-28 melanoma,2.59 µM
same,TGI,SK-MEL-28 melanoma,5.8 µM
same,GI50,DU-145 prostate,2.19 µM
same,TGI,DU-145 prostate,13.4 µM
same,GI50,T-47D breast,> 72 µM
same,TGI,T-47D breast,> 72 µM
same,GI50,MDA-MB-435,0.54 µM
same,TGI,MDA-MB-435,13.3 µM
same,GI50,SF-295 CNS,0.986 µM
same,TGI,SF-295 CNS,15.5 µM
same,GI50,SK-MEL-2 melanoma,1.29 µM
same,TGI,SK-MEL-2 melanoma,6.54 µM
same,GI50,MALME-3M melanoma,0.384 µM
same,TGI,MALME-3M melanoma,3.32 µM
same,GI50,HS 578T breast,0.398 µM
same,TGI,HS 578T breast,6.06 µM
same,GI50,KM12 colon,0.0072 µM
same,TGI,KM12 colon,9.17 µM
same,GI50,HL-60(TB) leukemia,0.31 µM
same,TGI,HL-60(TB) leukemia,4.25 µM
same,GI50,IGROV1 ovarian,3.81 µM
same,TGI,IGROV1 ovarian,> 30.2 µM
same,GI50,SK-MEL-5 melanoma,4.78 µM
same,TGI,SK-MEL-5 melanoma,14.9 µM
same,GI50,CAKI-1 renal,1.08 µM
same,TGI,CAKI-1 renal,10.5 µM
same,GI50,MOLT-4 leukemia,0.356 µM
same,TGI,MOLT-4 leukemia,4.07 µM
same,GI50,MDA-MB-468 breast,1.66 µM
same,TGI,MDA-MB-468 breast,13 µM
same,GI50,HOP-92 NSCLC,0.238 µM
same,TGI,HOP-92 NSCLC,2.9 µM
same,GI50,K-562 leukemia,0.0072 µM
same,TGI,K-562 leukemia,1.11 µM
same,GI50,EKVX NSCLC,1.22 µM
same,TGI,EKVX NSCLC,13.3 µM
same,GI50,NCI-H460 lung,0.496 µM
same,TGI,NCI-H460 lung,13.1 µM
same,GI50,UO-31 renal,3.23 µM
same,TGI,UO-31 renal,12.8 µM
same,GI50,SR leukemia,0.549 µM
same,TGI,SR leukemia,> 30.5 µM
same,GI50,OVCAR-5 ovarian,0.838 µM
same,TGI,OVCAR-5 ovarian,9.91 µM
same,GI50,NCI-H226 lung,0.147 µM
same,TGI,NCI-H226 lung,2.3 µM
same,GI50,SF-268 CNS,2.83 µM
same,TGI,SF-268 CNS,18.5 µM
same,GI50,PC-3 prostate,3.76 µM
same,TGI,PC-3 prostate,19.9 µM
same,GI50,CCRF-CEM leukemia,0.203 µM
same,TGI,CCRF-CEM leukemia,> 72 µM
same,GI50,OVCAR-8 ovarian,4.26 µM
same,TGI,OVCAR-8 ovarian,18.2 µM
same,GI50,MCF7 breast,0.295 µM
same,TGI,MCF7 breast,3.68 µM
same,GI50,UACC-257 melanoma,3.8 µM
same,TGI,UACC-257 melanoma,16.7 µM
same,GI50,NCI/ADR-RES ovarian,2.23 µM
same,TGI,NCI/ADR-RES ovarian,9.34 µM
same,GI50,HCT-116 colon,0.244 µM
same,TGI,HCT-116 colon,5.55 µM
same,GI50,BT-549 breast,1.47 µM
same,TGI,BT-549 breast,9.85 µM
same,GI50,TK-10 renal,6.03 µM
same,TGI,TK-10 renal,15.6 µM
same,GI50,COLO 205 colon,0.265 µM
same,TGI,COLO 205 colon,2.34 µM
same,GI50,SK-OV-3 ovarian,5.68 µM
same,TGI,SK-OV-3 ovarian,20 µM
same,GI50,U251 CNS,9.62 µM
same,TGI,U251 CNS,23.2 µM
same,GI50,786-0 renal,3.53 µM
same,TGI,786-0 renal,15.6 µM
same,GI50,A549 NSCLC,1.27 µM
same,TGI,A549 NSCLC,17.7 µM
same,GI50,ACHN renal,1.39 µM
same,TGI,ACHN renal,> 28.4 µM
same,GI50,LOX IMVI melanoma,0.877 µM
same,TGI,LOX IMVI melanoma,4.26 µM
same,GI50,HT29 colon,0.444 µM
same,TGI,HT29 colon,9.45 µM
same,GI50,M14 melanoma,0.569 µM
same,TGI,M14 melanoma,3.12 µM
same,GI50,NCI-H522 lung,1.84 µM
same,TGI,NCI-H522 lung,14.1 µM
same,GI50,MDA-MB-231 breast,0.61 µM
same,TGI,MDA-MB-231 breast,6.53 µM
same,GI50,A498 renal,14.2 µM
same,TGI,A498 renal,> 37.7 µM
same,GI50,HCC-2998 colon,4.16 µM
same,TGI,HCC-2998 colon,14.4 µM
same,GI50,SF-539 CNS,0.196 µM
same,TGI,SF-539 CNS,1.13 µM
same,GI50,OVCAR-3 ovarian,6.35 µM
same,TGI,OVCAR-3 ovarian,> 39.7 µM
